Test results published in the supplement of paper PMC6045584.
± gives the standard deviation of the averaged measurements.

Assays:
EVEROLIMUS = compound: CO[C@H]1C[C@@H]2CC[C@@H](C)[C@@](O)(O2)C(=O)C(=O)N2CCCC[C@H]2C(=O)O[C@H]([C@H](C)C[C@@H]2CC[C@@H](OCCO)[C@H](OC)C2)CC(=O)[C@H](C)/C=C(\C)[C@@H](O)[C@@H](OC)C(=O)[C@H](C)C[C@H](C)/C=C/C=C/C=C/1C [EVEROLIMUS]; experiment: surviving fraction relative to DMSO-only wells; higher = less growth inhibition; details: exposure time: 5 days
Outline: (§1)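 At 250–500 cells per well in 384-well plates, log-phase tumour cell lines were seeded and, 24 hours on, exposed continuously for five days to inhibitors at 0.5, 1, 5, 10, 50, 100, 500 and 1000 nM. Viability readout was CellTiter-Glo luminescence, reported as surviving fraction normalised to the median of DMSO-only wells.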

[1] = compound: O=C(NOCC1CC1)c1ccc(F)c(F)c1Nc1ccc(I)cc1Cl; experiment: as above; details: exposure time: 5 days
Outline: as §1

Test System | surviving fraction (EVEROLIMUS; 0.5 nM) | surviving fraction (EVEROLIMUS; 1 nM) | surviving fraction (EVEROLIMUS; 5 nM) | surviving fraction (EVEROLIMUS; 10 nM) | surviving fraction (EVEROLIMUS; 50 nM) | surviving fraction (EVEROLIMUS; 100 nM) | surviving fraction (EVEROLIMUS; 500 nM) | surviving fraction (EVEROLIMUS; 1000 nM) | surviving fraction ([1]; 0.5 nM) | surviving fraction ([1]; 1 nM) | surviving fraction ([1]; 5 nM) | surviving fraction ([1]; 10 nM) | surviving fraction ([1]; 50 nM) | surviving fraction ([1]; 100 nM) | surviving fraction ([1]; 500 nM) | surviving fraction ([1]; 1000 nM)
22RV1 PROSTATE | 0.788 ± 0.065 | 0.588 ± 0.14 | 0.452 ± 0.043 | 0.375 ± 0.031 | 0.515 ± 0.24 | 0.374 ± 0.032 | 0.365 ± 0.061 | 0.375 ± 0.028 | 0.93 ± 0.034 | 1.03 ± 0.044 | 0.917 ± 0.04 | 0.851 ± 0.038 | 0.714 ± 0.068 | 0.6767 ± 0.0032 | 0.631 ± 0.037 | 0.526 ± 0.019
93VU HEADNECK | 0.953 ± 0.098 | 0.905 ± 0.076 | 0.865 ± 0.024 | 0.841 ± 0.065 | 0.85 ± 0.051 | 0.767 ± 0.11 | 0.706 ± 0.027 | 0.649 ± 0.049 | 0.859 ± 0.026 | 0.873 ± 0.089 | 0.979 ± 0.061 | 0.828 ± 0.051 | 0.785 ± 0.074 | 0.751 ± 0.037 | 0.417 ± 0.036 | 0.311 ± 0.097
143B BONE | 0.954 ± 0.032 | 0.948 ± 0.022 | 0.846 ± 0.03 | 0.824 ± 0.018 | 0.8355 ± 0.00071 | 0.825 ± 0.029 | 0.793 ± 0.057 | 0.827 ± 0.096 | 0.887 ± 0.14 | 0.98 ± 0.0057 | 0.97 ± 0.018 | 1 ± 0.037 | 0.857 ± 0.13 | 0.957 ± 0.037 | 0.841 ± 0.028 | 0.542 ± 0.021
A549 LUNG | 0.962 ± 0.022 | 0.927 ± 0.018 | 0.8767 ± 0.0076 | 0.842 ± 0.017 | 0.855 ± 0.041 | 0.826 ± 0.048 | 0.777 ± 0.0096 | 0.759 ± 0.058 | 0.931 ± 0.014 | 0.95667 ± 0.00058 | 0.947 ± 0.017 | 0.956 ± 0.019 | 0.964 ± 0.027 | 1.01 ± 0.02 | 0.93 ± 0.013 | 0.886 ± 0.015
ASKA SYNOVIAL | 1 ± 0.077 | 0.93 ± 0.1 | 0.787 ± 0.085 | 0.62 ± 0.049 | 0.612 ± 0.022 | 0.576 ± 0.051 | 0.531 ± 0.036 | 0.577 ± 0.04 | 0.658 ± 0.015 | 1.08 ± 0.052 | 1.08 ± 0.049 | 1.14 ± 0.035 | 0.847 ± 0.019 | 1.11 ± 0.073 | 0.973 ± 0.034 | 0.903 ± 0.029
BT20 BREAST | 0.595 ± 0.042 | 0.46 ± 0.037 | 0.394 ± 0.041 | 0.378 ± 0.042 | 0.353 ± 0.015 | 0.369 ± 0.02 | 0.34 ± 0.018 | 0.374 ± 0.018 | 0.994 ± 0.099 | 1.06 ± 0.055 | 1.03 ± 0.091 | 0.962 ± 0.13 | 0.905 ± 0.12 | 0.928 ± 0.055 | 0.864 ± 0.061 | 0.849 ± 0.069
BT549 BREAST | 0.569 ± 0.026 | 0.531 ± 0.061 | 0.415 ± 0.032 | 0.499 ± 0.079 | 0.4507 ± 0.0023 | 0.418 ± 0.05 | 0.365 ± 0.017 | 0.356 ± 0.027 | 1.03 ± 0.11 | 1.07 ± 0.088 | 1.08 ± 0.23 | 1.14 ± 0.03 | 1.15 ± 0.062 | 1.21 ± 0.044 | 1.3 ± 0.067 | 1.23 ± 0.16
CADOES1 SOFT TISSUE | 0.842 ± 0.1 | 0.74 ± 0.072 | 0.529 ± 0.052 | 0.472 ± 0.11 | 0.309 ± 0.036 | 0.344 ± 0.098 | 0.259 ± 0.017 | 0.268 ± 0.04 | 0.913 ± 0.11 | 0.844 ± 0.075 | 0.894 ± 0.15 | 0.86 ± 0.081 | 0.903 ± 0.061 | 0.918 ± 0.1 | 0.875 ± 0.14 | 0.746 ± 0.14
